Results: US20110240014A1, “SUBSTRATES FOR DRUG DELIVERY DEVICE AND METHODS OF PREPARING AND USE” (ALEXZA PHARMACEUTICALS, INC., priority 2003, published 2011)
Entries after “also recorded” stand apart in the source; their conditions may differ.

What was measured:
[1] = Vaporization of budesonide film from clean and treated steel foils 304, T-430 and zirconium oxide coated 304; aerosol purity, yield and recovery by HPLC; format: physicochemical; settings: in all cases (all foils of Example 5)
Description: Generation of budesonide aerosol from clean and treated steel foils 304 and T-430. […] All foils were dip-coated with a budesonide solution in dichloromethane.

[2] = Vaporization of flunisolide film from stainless steel foil substrates (304, T-430, zirconium oxide coated 304); aerosol purity, yield and recovery by HPLC; settings: for Purity of the drug aerosol particles: peak about 350° C.
[3] = Vaporization of bumetanide film from heat-treated, nitric acid-treated and non-treated 304 stainless steel foil; aerosol purity, yield and recovery by HPLC; settings: for mass recovered from the filter / percent yield (recovered from the filter) / total mass recovered from the filter, test apparatus and substrate / Purity of the drug aerosol particles: coating 1.4 μm, 0.77 mg applied; for Purity of the drug aerosol particles: peak about 320° C.
[4] = Vaporization of eletriptan film from heat-treated and non-treated 304 stainless steel foil; aerosol purity, yield and recovery by HPLC; format: physicochemical; settings: for mass recovered from the filter / percent yield (recovered from the filter) / total mass recovered from the filter, test apparatus and substrate / Purity of the drug aerosol particles: film thickness 4.2 μm, 2.26 mg applied; for Purity of the drug aerosol particles: peak about 450° C.
Description: All foils were dip-coated with an eletriptan solution in acetone.

[5] = 0.5 μm coating on the heat-treated substrate
[6] = 1.5 μm coating on the non-treated substrate
[7] = heat-treated substrate 304, film thickness 0.5 μm, 0.253 mg applied
[8] = heat-treated substrate 304, film thickness 1.5 μm, 0.443 mg applied
[9] = non-treated substrate 304, film thickness 0.9 μm, 0.485 mg applied
[10] = non-treated substrate T-430, film thickness 1.3 μm, 0.68 mg applied
[11] = substrate 304 (treatment not stated), film thickness 1.2 μm, 0.65 mg applied
[12] = zirconium oxide coated substrate 304, film thickness 0.8 μm, 0.44 mg applied
[13] = acid-treated (nitric acid) substrate

## CCCC1O[C@@H]2C[C@H]3[C@@H]4CCC5=CC(=O)C=C[C@]5(C)[C@H]4[C@@H](O)C[C@]3(C)[C@]2(C(=O)CO)O1 (some centres unmarked) [budesonide]
[1]
  quantity of drug remaining on the foil after vaporization: less than 5 % of the loaded dose

## CC1(C)O[C@@H]2C[C@H]3[C@@H]4C[C@H](F)C5=CC(=O)C=C[C@]5(C)[C@H]4[C@@H](O)C[C@]3(C)[C@]2(C(=O)CO)O1 [flunisolide]
[2]; [5]
  aerosol particles yielded: about 0.3 mg
  coated dose emitted from the test apparatus: 97%-100
[2]; [6]
  aerosol particles yielded: 0.2 mg
  coated dose emitted from the test apparatus: about 25%
[2]; clean, non-treated T-430 steel foil, compared with non-treated 304 (FIG. 7)
  vapor purity (in words): good vapor purities; also recorded: improved purities; also recorded: very good purities
[2]; heat-treated 304 substrate, film thickness about 0.2 μm (FIG. 6)
  purity of thermal vapor: about 93%
[2]; heat-treated T-430 foils versus non-treated T-430
  change of aerosol purity (in words): no marked improvement
[2]; [7]
  mass recovered from the filter: 0.253 mg
  percent yield (recovered from the filter): 100%
  total mass recovered from the test apparatus and substrate: 0.253 mg
  Purity of the drug aerosol particles: 94.4%
[2]; [8]
  mass recovered from the filter: 0.255 mg
  percent yield (recovered from the filter): 57.5%
  total mass recovered from the test apparatus and substrate: 0.265 mg
  Purity of the drug aerosol particles: 76.5%
[2]; heat-treated substrate, film thickness about 0.2 or 0.5 μm
  purity of thermal vapor: about 93%
[2]; heat-treated substrate, film thickness about 2.6 μm
  purity of thermal vapor: 83%
[2]; heat-treated versus non-treated 304 substrates, films 0.2 μm to 2.6 μm (FIG. 6)
  change of aerosol purity (in words): marked improvement; also recorded: marked increase
[2]; in all cases (all foils of Example 1)
  quantity of drug remaining on the foil after vaporization: less than 15 % of the loaded dose
[2]; non-treated 304 substrate, film thickness about 0.2 μm (FIG. 6)
  purity of thermal vapor: about 50%
[2]; [9]
  mass recovered from the filter: 0.206 mg
  percent yield (recovered from the filter): 42.4%
  total mass recovered from the test apparatus and substrate: 0.210 mg
  Purity of the drug aerosol particles: 36.3%
[2]; [10]
  mass recovered from the filter: 0.47 mg
  percent yield (recovered from the filter): 69.1%
  total mass recovered from the test apparatus and substrate: 0.51 mg
  Purity of the drug aerosol particles: 82.8%
[2]; non-treated substrate, film thickness about 1.5 μm
  purity of thermal vapor: 38%
[2]; [11]
  mass recovered from the filter: 0.161 mg
  percent yield (recovered from the filter): 24.7%
  total mass recovered from the test apparatus and substrate: 0.172 mg
  Purity of the drug aerosol particles: 30.2%
[2]; zirconium oxide coated 304 steel foil, without heat treatment (FIG. 7)
  vapor purity (in words): good aerosol purities; also recorded: improved purities; also recorded: very good vapor purities
[2]; [12]
  mass recovered from the filter: 0.246 mg
  percent yield (recovered from the filter): 55.9%
  total mass recovered from the test apparatus and substrate: 0.31 mg
  Purity of the drug aerosol particles: 90.0%

## CCCCNc1cc(C(=O)O)cc(S(N)(=O)=O)c1Oc1ccccc1 [bumetanide]
[3]; [13]
  mass recovered from the filter: 0.41 mg
  percent yield (recovered from the filter): 53%
  total mass recovered from the filter, test apparatus and substrate: 0.42 mg
  Purity of the drug aerosol particles: 98.3%
[3]; heat-treated substrate (350° C., 6 hours)
  Purity of the drug aerosol particles: 99.3%
[3]; heat-treated substrate
  mass recovered from the filter: 0.40 mg
  percent yield (recovered from the filter): 52%
  total mass recovered from the filter, test apparatus and substrate: 0.41 mg
[3]; in all cases (all foils of Example 4)
  quantity of drug remaining on the foil after vaporization: less than 5 % of the loaded dose
[3]; non-treated substrate
  mass recovered from the filter: 0.37 mg
  percent yield (recovered from the filter): 48%
  total mass recovered from the filter, test apparatus and substrate: 0.37 mg
  Purity of the drug aerosol particles: 97.9%

## CN1CCC[C@@H]1Cc1c[nH]c2ccc(CCS(=O)(=O)c3ccccc3)cc12 [eletriptan]
[4]; heat-treated 304 substrate
  mass recovered from the filter: 1.78 mg
  percent yield (recovered from the filter): 78.9%
  total mass recovered from the filter, test apparatus and substrate: 1.79 mg
  Purity of the drug aerosol particles: 95.6%
[4]; heat-treated versus non-treated foils, films between 4.0 and 9.5 μm (FIG. 8)
  change of aerosol purity (in words): increase
[4]; in all cases (all foils of Example 2)
  quantity of drug remaining on the foil after vaporization: less than 15 % of the loaded dose
[4]; non-treated 304 substrate
  mass recovered from the filter: 1.647 mg
  percent yield (recovered from the filter): 72.9%
  total mass recovered from the filter, test apparatus and substrate: 1.65 mg
  Purity of the drug aerosol particles: 92.8%
